Assay results as given in patent US6933318B1, “Topical organic ectoparasiticidal formulations” (Eli Lilly and Company, priority 1999, dated 2005).
“Also recorded” adds a separate entry of the source.

Experiment: Wetting test of solvent systems on tanned rabbit pelt
Type: physicochemical
Conditions: about 1 mL solvent without active ingredient, dropwise, pelt at about 45°
Procedure: To determine organic solvents that are useful spreading agents, solvent systems that are capable of solubilizing at least 1% spinosad by weight percent were screened for hair wetting by applying about 1 mL of the solvent system (solvents were screened without active ingredient), dropwise, to a tanned rabbit pelt that was at an angle of about 45°. […]

Ability to wet rabbit hair | Compound
Wet Well | CCCCCCCCCCCC(=O)OC [methyl laurate]
Wet Well | C=C(C)[C@H]1CC=C(C)CC1 [limonene]
Did Not Wet | CC(=O)OCC(COC(C)=O)OC(C)=O [triacetin]
Wet Well | CCCCCCCC(=O)O [octanoic acid]
Wet Well | CCCCCCCCCCCCCC(=O)OC(C)C [isopropyl myristate]
Did Not Wet | CN1CCCC1=O [N-methyl pyrrolidone]
Did Not Wet | CC(O)CO (stereo not shown) [propylene glycol]
Wet Well | CCCCCCO [hexanol]
Wet Well | CCCCCCCC/C=C\CCCCCCCC(=O)OC [methyl oleate]
Wet Well | CCCCCCCCCC(=O)OC [methyl caprate]
Wet Well | CCCCCCCC/C=C\CCCCCCCC(=O)OCC [ethyl oleate]
Wet Well | CCCCOC(=O)C(C)O (stereo not shown) [butyl lactate]

Compound | Ability to wet rabbit hair
COC(C)COC(C)CO (stereo not shown) [dipropylene glycol methyl ether] | wet the hair very well; also recorded: Wet Well
